Data as given in US20100105602A1, “TREATMENT OF INT[…] INFECTIONS” (Novozymes A/S, priority 2008, published 2010).

How the values were obtained:
[1] = test system: Staphylococcus aureus ATCC25923 (MSSA) in THP-1 macrophages; test: In vitro intracellular activity in infected THP-1 macrophages, S. aureus ATCC25923; format: cell-based; conditions: for Emax (95% CI): decrease in log CFU after 24 hours compared to original inoculum
Protocol: (§1) For studies of Plectasin, two strains of S. aureus were applied: ATCC25923 (MSSA) and E33235 (MSSA, axil, clinical isolate from Statens Serum Institute, Denmark).
(§2) For studies of Defensin2114, […] of S. aureus were used: ATCC25923 (MSSA), MRSA (clinical septicaemia isolate, Statens Serum Institute, ref. no. 1-15479) and VRSA2 (Pennsylvania HIP 11983).
(§3) Overnight culture of bacteria was opsonized for 45 min with human serum (AB positive, Lonza, USA). Afterwards the bacteria were tittered using a spectrophotometer (CECIL 2040) and THP-1 macrophages were counted and then infected with 4 bacteria/cell. THP-1 cells were cultured in RPMI 1640 medium supplemented with fetal calf serum.
(§4) The bacteria were incubated with cells for 1 hour at 37° C., CO2 5%, to allow phagocytosis.
(§5) After 1 hour of incubation the infected cells were incubated 45 min with Gentamicin (50 micrograms/mL) to eradicate remaining non-phagocytosed bacteria. To remove Gentamicin after incubation cells were washed 3× with PBS. After the third wash, cells were re-suspended in RPMI 1640 medium (+10% fetal calf serum) and Plectasin or Defensin2114 was added at desired concentrations (0-128×MIC). One sample was incubated with Gentamicin at 1×MIC for control of intracellular growth. In studies of Defensin2114 the activity was compared to that of vancomycin and daptomycin.
(§6) Cells were incubated in 6-well plates for 24 hours at 37° C., CO2 5%.
(§7) After incubation cells were washed in PBS and subsequently re-suspended in sterile water to release intracellular bacteria.
(§8) Samples were diluted regarding to the expected amount of CFU and spread on TSA plates and incubated at 35° C. overnight. After 24 hours incubation the CFU were counted.
(§9) The samples may be stored at −20° C. for up to one week. Samples were sonicated and proteins titered as described by Lowry et al. hereby obtaining results as CFU/mg protein. All samples were tested in triplicates.
(§10) In vitro intracellular dose-response studies: For analysis of dose-effect relationships, the Hill-equation (slope=1) was employed to calculate the maximal relative efficacy, Emax, static concentration (Cstatic) and goodness-of-fit. These parameters were determined using non-linear regression.

[2] = Kinetics study, serum, and PK/PD parameters of dosing regimens; format: in vivo, mice; set-up: AUC(free) / Peak / Cpeak: unit not given here; conditions: for AUC(free): free serum concentrations
Protocol: Animals were dosed from 4.25-34 mg/kg
The serum was separated and stored at −20° C. until analysis by LCMSMS using internal and external standards. Serum binding was calculated to 90%.
Pharmacokinetic parameters were determined through intrapolation from free serum concentrations using GraphPad Prism.

[3] = test system: Staphylococcus aureus E33235 (MSSA) in THP-1 macrophages; test: In vitro intracellular activity in infected THP-1 macrophages, S. aureus E33235; format: cell-based; conditions: S. aureus E33235, THP-1 macrophages, 24 hours
Protocol: as §1, §3, §4
After 1 hour of incubation the infected cells were incubated 45 min with Gentamicin (50 micrograms/mL) to eradicate remaining non-phagocytosed bacteria. To remove Gentamicin after incubation cells were washed 3× with PBS. […]
Samples were diluted regarding to the expected amount of CFU and spread on TSA plates and incubated at 35° C. overnight. After 24 hours incubation the CFU were counted. […]
as §10

[4] = test system: Staphylococcus aureus E33235; test: Mouse peritonitis model, intra- and extracellular effect; format: in vivo, mice
Protocol: This Example presents an in vivo study of the efficacy of Plectasin against intracellular Staphylococcus aureus E33235 in an animal model of infection (peritonitis), including assessment of both intra- and extracellular effect. Staphylococcus aureus E33235 is a clinically isolated strain obtainable from Statens Serum Institut, Denmark.
Staphylococcus aureus E33235 was spread on 5% blood plates and incubated overnight at 37° C. at ambient air. A 10% w/v Mucin solution was prepared in NaCl. The solution was sterilized and pH adjusted to pH 7.0.
Colonies of Staphylococcus aureus were suspended in saline to approx. 10^8 CFU/mL (OD=0.13). A 1:1 dilution with the 10% Mucin stock solution was prepared making a solution of 5% Mucin and 5×10^7 CFU/mL.
A solution of 50 mg/mL lysostaphin was prepared in HBSS (Hanks Balanced Salt Solution).
Two hours before treatment (T=0) the mice were inoculated i.p. with 0.5 mL Staphylococcus aureus suspension (with 5% Mucin).
The injected dose volume was 0.6 or 0.3 mL/animal. The first dose was injected two hours after inoculation (T=2).
At T=2 and T=6 hours control animals were sacrificed and peritoneal wash performed. 24 hours after first treatment, the remaining treated animals were sacrificed. Peritoneal wash was performed after sacrifice of animals by cervical dislocation.
Negative control (cell free): Inoculum at 10^8 CFU/mL of S. aureus E 33235 (OD=0.13) in saline was prepared just before the last separation assay of the day. The negative control was handled exactly as the test samples. Microscopy and cell-count of the negative control are not shown. Each sample was handled as described in Table 6.
CFU counts from peritoneal fluid from treated animals were compared to PK/PD parameters to assess the correlation between intra- and extracellular effect of Plectasin to Cpeak, T>MIC and AUC/MIC.
Correlation (Hills) between the most predictive PK/PD-parameter. Effect was determined as the decrease in CFU in the peritoneal fluid 24 hours after the first treatment. Parameters were estimated by multiple regression analysis.

[5] = test system: Staphylococcus aureus VRSA2 (Pennsylvania HIP 11983) in THP-1 macrophages; test: In vitro intracellular activity in infected THP-1 macrophages, VRSA2; format: cell-based; conditions: for Cstatic / Emax (95% CI): VRSA2, THP-1 macrophages, 24 hours
Protocol: as §2, §3, §4, §5, §6, §7, §8, §9, §10

[6] = test system: Staphylococcus aureus MRSA (1-15479) in THP-1 macrophages; test: In vitro intracellular activity in infected THP-1 macrophages, MRSA (1-15479); format: cell-based; conditions: for Cstatic / Emax (95% CI): MRSA (1-15479), THP-1 macrophages, 24 hours
Protocol: as §2, §3, §4, §5, §6, §7, §8, §9, §10

[7] = S. aureus ATCC25923, THP-1 macrophages, 24 hours, Table 1
[8] = b.i.d. treatment with 34 mg/kg, peritoneal fluid, 24 hours after first treatment
[9] = S. aureus ATCC25923, THP-1 macrophages, 24 hours, no apparent growth
[10] = S. aureus ATCC25923, THP-1 macrophages

Compound: CC[C@H](C)[C@@H]1NC(=O)[C@H](CO)NC(=O)[C@H](CCCCN)NC(=O)[C@@H]2CSSC[C@@H](C(=O)N[C@@H](Cc3ccc(O)cc3)C(=O)O)NC(=O)[C@H](CCCCN)NC(=O)[C@@H]3CSSC[C@H](NC(=O)[C@H](CCC(N)=O)NC(=O)[C@H](CCSC)NC(=O)[C@H](CC(=O)O)NC(=O)[C@H](CC(=O)O)NC(=O)[C@H](CCC(=O)O)NC(=O)[C@H](CC(=O)O)NC(=O)[C@H](Cc4c[nH]c5ccccc45)NC(=O)[C@@H]4CCCN4C(=O)CNC(=O)[C@H](CC(N)=O)NC(=O)[C@@H](NC(=O)CNC(=O)[C@H](Cc4ccccc4)NC(=O)CN)CSSC[C@H](NC(=O)[C@H](Cc4ccc(O)cc4)NC(=O)CNC(=O)CNC(=O)[C@H](CCCCN)NC(=O)[C@H](Cc4ccc(O)cc4)NC(=O)CNC(=O)[C@H](CCCCN)NC1=O)C(=O)N[C@@H](C)C(=O)N[C@@H](CCCCN)C(=O)NCC(=O)NCC(=O)N[C@@H](Cc1ccccc1)C(=O)N[C@@H](C(C)C)C(=O)N3)C(=O)N[C@@H](Cc1c[nH]cn1)C(=O)N[C@@H](CC(N)=O)C(=O)N[C@@H](Cc1c[nH]cn1)C(=O)N2 [Plectasin]
- Cstatic [1, 7]: 0.6 ×MIC
- Emax (CI) [1, 7]: −1.35 log CFU
- Peak ([2]; dose 4.25 mg/kg): 1.61
- AUC(free) ([2]; dose 4.25 mg/kg): 1.901
- Peak ([2]; dose 8.5 mg/kg): 2.32
- AUC(free) ([2]; dose 8.5 mg/kg): 3.955
- Peak ([2]; dose 17 mg/kg): 4.95
- AUC(free) ([2]; dose 17 mg/kg): 8
- Peak ([2]; dose 34 mg/kg): 5.99
- AUC(free) ([2]; dose 34 mg/kg): 13.25
- fraction unbound ([2]; mouse, serum, LCMSMS, read-out: Serum binding (converted)): 0.1
- Cpeak ([2]; regimen 1: 34 mg/kg, 1 dose in 24 hours): 5.99
- Cpeak ([2]; regimen 2: 17 mg/kg, 1 dose in 24 hours): 4.95
- Cpeak ([2]; regimen 3: 8.5 mg/kg, 1 dose in 24 hours): 2.32
- Cpeak ([2]; regimen 4: 4.25 mg/kg, 1 dose in 24 hours): 1.61
- Cpeak ([2]; regimen 5: 17 mg/kg, 2 doses in 24 hours): 5.99
- Cpeak ([2]; regimen 6: 8.5 mg/kg, 2 doses in 24 hours): 2.32
- Cpeak ([2]; regimen 7: 34 mg/kg, 3 doses in 24 hours): 5.99
- Cpeak ([2]; regimen 8: 4.25 mg/kg, 3 doses in 24 hours): 1.61
- Cpeak ([2]; regimen 9: 8.5 mg/kg, 4 doses in 24 hours): 2.32
- Cpeak ([2]; regimen 10: 8.5 mg/kg, 6 doses in 24 hours): 2.32
- Cstatic [3]: 0.6 ×MIC
- Emax (CI) [3]: −0.97 log CFU
- Max Δ log Decrease in CFU Extracellularly [4, 8]: −2.55 (SD: 0.150) Δ log
- Max Δ log Decrease in CFU Intracellularly [4, 8]: −1.25 (SD: 0.058) Δ log
- effect in the mouse peritonitis model ([4]; s.c. treatment, S. aureus E33235 i.p.): showed both intra- and extracellular effect

Compound: Defensin2114: defensin polypeptide shown as SEQ ID NO: 1; synthetic defensin derived from Plectasin (GFGCNGPWNEDDLRCHNHCKSIKGYKGGYCAKGGFVCKCY)
- Emax comparison, one-way ANOVA (Tukeys test) ([5]; VRSA): No difference in Emax value between Defensin2114 and daptomycin
- Cstatic [5]: 2.3 ×MIC
- Emax (95% CI) [5]: −0.22 log CFU
- Cstatic [6]: 1.1 ×MIC
- Emax (95% CI) [6]: −0.93 log CFU
- Emax comparison, one-way ANOVA (Tukeys test) ([6]; MRSA, P<0.01): significantly lower Emax value than vancomycin
- Emax comparison, one-way ANOVA (Tukeys test) ([1]; ATCC25923): significantly lower Emax value than both daptomycin and vancomycin
- Cstatic [1, 9]: 0.8 ×MIC
- Emax (95% CI) [1, 10]: −1.51 log CFU

Compound: CCCCCCCCCC(=O)N[C@@H](Cc1c[nH]c2ccccc12)C(=O)N[C@H](CC(N)=O)C(=O)N[C@@H](CC(=O)O)C(=O)N[C@@H]1C(=O)NCC(=O)N[C@@H](CCCN)C(=O)N[C@@H](CC(=O)O)C(=O)N[C@H](C)C(=O)N[C@@H](CC(=O)O)C(=O)NCC(=O)N[C@H](CO)C(=O)N[C@@H]([C@H](C)CC(=O)O)C(=O)N[C@@H](CC(=O)c2ccccc2N)C(=O)O[C@@H]1C [Daptomycin, reference compound]
- Cstatic [5]: 1.3 ×MIC
- Emax (95% CI) [5]: −0.29 log CFU
- Cstatic [6]: 1.8 ×MIC
- Emax (95% CI) [6]: −0.85 log CFU
- Cstatic [1, 9]: 0.6 ×MIC
- Emax (95% CI) [1, 10]: −1.00 log CFU

Compound: CN[C@H](CC(C)C)C(=O)N[C@H]1C(=O)N[C@@H](CC(N)=O)C(=O)N[C@H]2C(=O)N[C@H]3C(=O)N[C@H](C(=O)N[C@H](C(=O)O)c4cc(O)cc(O)c4-c4cc3ccc4O)[C@H](O)c3ccc(c(Cl)c3)Oc3cc2cc(c3O[C@@H]2O[C@H](CO)[C@@H](O)[C@H](O)[C@H]2O[C@H]2C[C@](C)(N)[C@H](O)[C@H](C)O2)Oc2ccc(cc2Cl)[C@H]1O [Vancomycin, reference compound]
- Cstatic [6]: 6.2 ×MIC
- Emax (95% CI) [6]: −0.66 log CFU
- Cstatic [1, 9]: 2.9 ×MIC
- Emax (95% CI) [1, 10]: −0.64 log CFU
